The values below are quoted from earlier work in US9110064B2, “Methods for diagnosis and treatment of endometrial cancer” (THE REGENTS OF THE UNIVERSITY OF CALIFORNIA, priority 2005, dated 2015).

The test system of the data set is PMP22. To be noted: patients with Charcot Marie Tooth Type I.

On to `CC(=O)[C@H]1CC[C@H]2[C@@H]3CCC4=CC(=O)CC[C@]4(C)[C@H]3CC[C@]12C` [progesterone], for which the PMP22 levels entry is on record as “restore normal PMP22 levels” and the disease phenotype entry is listed as “ameliorated the disease phenotype”.
